Measurements reported in patent US20240018121A1, “NOVEL HETEROAROMATIC COMPOUNDS EXHIBITING ANTIFUNGAL ACTIVITY AND THEIR METHOD OF USE” (FOX CHASE CHEMCIAL DIVERSITY CENTER, INC., priority 2020, published 2024).
Values after ≈ are worked out from the molar mass of the structure shown. Structures can show the parent of a compound that is named as a salt. Where two headings read alike, the source gives them in different places.

Experiments:
Type in all cases: cell-based
[1] = tested on: Mucor circinelloides 1463(62) (ATCC 26759); test: Fungal MIC Protocol, Mucor circinelloides (MIC-50); conditions: Mucor circinelloides, read-out: MIC-50 Mucorales circinelloides 26579
In short: (§1)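 Spores from PDA cultures (Aspergillus, Fusarium at 35 °C; Mucor at room temperature) diluted in RPMI/MOPS pH 7.0 to ~2×10^4 cfu/mL. Ten serial dilutions starting from 200 ug/mL in medium (before 1:1 mixing with spores), in duplicate; 48 h at 35 °C. MIC is the lowest concentration giving >50% visually scored growth inhibition.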

[2] = tested on: Aspergillus fumigatus T33439 (ATCC MYA-3626); test: Fungal MIC Protocol, Aspergillus fumigatus; conditions: Aspergillus fumigatus, read-out: MIC Aspergillus fumigatus 3626
In short: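 This broth microdilution MIC test used RPMI/MOPS medium at pH 7.0 with glucose. Compounds were diluted from DMSO stock to 200 ug/mL and serially diluted ten times in 96-well round bottom plates. Equal volumes of compound and Aspergillus spore suspension at OD530 0.002 were combined, with controls of compound without cells and spores without compound. Plates were bagged and incubated at 35° C. for 48 hours.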

[3] = tested on: Mucor ramosissimus 057718 (ATCC 90286); test: Fungal MIC Protocol, Mucor ramosissimus (MIC-50); conditions: Mucor ramosissimus, read-out: MIC-50 Mucorales ramosissimus 90286
In short: as §1

[4] = tested on: Aspergillus flavus AFL1 (ATCC MYA-3631); test: Fungal MIC Protocol, Aspergillus flavus; conditions: Aspergillus flavus, read-out: MIC Aspergillus flavus 3631
In short: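 The MIC against Aspergillus flavus was measured by broth microdilution in RPMI/MOPS medium at pH 7.0. Compounds were diluted to 200 ug/mL from DMSO stocks, then ten serial dilutions were tested in duplicate in round bottom 96-well plates. Spores adjusted to a final OD530 of 0.002 were added, with no-cell and no-compound control wells, and plates were incubated 48 hours at 35° C.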

Candida albicans GDH2346 = test: Candida Minimal Inhibitory Concentration (MIC); conditions: Candida albicans, read-out: MIC-50 Candida albicans GDH2346
Procedure: Candida Minimal Inhibitory Concentration (MIC): RPMI/MOPS media is prepared by dissolving 8.4 g RPMI 1640, 34.52 g MOPS buffer and 2 g glucose in 900 mL water. The pH is adjusted to 7.0 with NaOH. The total volume is brought to 1 L and the resulting solution is filter sterilized. The Candida stock is streaked on a Yeast extract Peptone Dextrose (YPD) agar plate and grown at 35° C. for isolation of single colonies. Compounds of the disclosure are diluted to 200 μg/mL in RPMI/MOPS (4.8 ul of 10 mg/mL DMSO stock in 240 ul media). Ten (10) 1:2 serial dilutions are prepared in RPMI/MOPS in a 96-well round bottom plate. Fifty (50) μl of compound dilutions are transferred in duplicate to a sterile tissue culture-treated 96-well flat-bottom, black-sided polypropylene plate. A single colony of Candida from the YPD plate is re-suspended in 5 mL phosphate buffered saline (BS) and optical density (OD) at 600 nm is measured. The suspension is adjusted to OD=1.0 and a 1:1000 dilution is prepared in RPMI/MOPS. Fifty (50) ul aliquots of the diluted yeast are added to the plates containing 50 μL of compound to all wells except 12E-H. Control wells include: 12 A-D cells, no compound and 12 E-H no cells, no compound. The plates are mixed gently by hand and placed in Ziplok bags in a 35° C. incubator. The OD600 is measured at 24 and 48 hours.

[5] = tested on: Fusarium solani (ATCC 58877); test: Fungal MIC Protocol, Fusarium solani; conditions: Fusarium solani, read-out: MIC Fusarium solani 58877
In short: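 Broth microdilution MIC test against Fusarium solani in RPMI/MOPS medium at pH 7.0. Compounds from DMSO stock were diluted to 200 ug/mL, then serially diluted ten times and plated in duplicate at 50 μl per well. 50 ul of spore suspension at OD530 0.005 was added. Controls had compound without cells and spores without compound. Plates were mixed gently, bagged, and incubated at 35° C. for 48 hours.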

[6] = tested on: Fusarium falciforme FS1 (ATCC MYA-3636); test: Fungal MIC Protocol, Fusarium falciforme; conditions: Fusarium falciforme, read-out: MIC Fusarium falciforme 3636
In short: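 MIC against Fusarium falciforme was determined by broth microdilution in RPMI/MOPS medium containing glucose. Compounds started at 200 ug/mL and were serially diluted ten times, then combined with harvested spores adjusted to an OD530 of 0.005. Controls held compound without cells and spores without compound. Plates were bagged and incubated at 35° C. for 48 hours.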

[7] = ATCC26759, 50% growth inhibition at 48 hours
[8] = 100% growth inhibition at 48 hours
[9] = ATCC90286, 50% growth inhibition at 48 hours
[10] = GDH2346, 50% growth inhibition at 48 hours
[11] = ATCC58877, 100% growth inhibition at 48 hours

Row | SMILES | MIC50 [1, 7] | MIC [2, 8] | MIC50 [3, 9] | MIC [4, 8] | MIC50 (Candida albicans GDH2346; [10]) | MIC [5, 11] | MIC [6, 8] | MIC50 ([1]; ATCC26759, 48 h) | MIC ([2]; 48 h) | MIC50 ([3]; ATCC90286, 48 h) | MIC ([4]; 48 h) | MIC50 (Candida albicans GDH2346; GDH2346, 48 h) | MIC ([5]; ATCC58877, 48 h) | MIC ([6]; 48 h)
1 | CC(C)n1c(-c2ccc(C3=CCN(C(=N)N)CC3)cc2F)nnc1-c1ccc(C2=CCN(C(=N)N)CC2)cc1F [Example 13, 4,4-(4,4-(4-Isopropyl-4H-1,2,4-triazole-3,5-diyl)bis(3-fluoro-4,1-phenylene))bis(5,6-dihydropyridine-1(2H)-carboximidamide)] | 0.39 µg/mL (≈ 0.715 µM) | < 0.1 µg/mL | 1.56 µg/mL (≈ 2.86 µM) | 0.2 µg/mL (≈ 0.367 µM) | 0.2 µg/mL (≈ 0.367 µM) | 6.25 µg/mL (≈ 11.5 µM) | 0.78 µg/mL (≈ 1.43 µM) | – | – | – | – | – | – | –
2 | Cn1c(-c2ccc(C3=CCN(C(=N)N)CC3)cc2)nnc1-c1ccc(C2=CCN(C(=N)N)CC2)c(C(F)(F)F)c1 [Example 25, 4-(4-(5-(4-(1-Carbamimidoyl-1,2,3,6-tetrahydropyridin-4-yl)-3-(trifluoromethyl)phenyl)-4-methyl-4H-1,2,4-triazol-3-yl)phenyl)-5,6-dihydropyridine-1(2H)-carboximidamide] | 0.78 µg/mL (≈ 1.42 µM) | 0.2 µg/mL (≈ 0.364 µM) | 3.13 µg/mL (≈ 5.69 µM) | 0.39 µg/mL (≈ 0.71 µM) | 0.78 µg/mL (≈ 1.42 µM) | 0.2 µg/mL (≈ 0.364 µM) | 0.2 µg/mL (≈ 0.364 µM) | – | – | – | – | – | – | –
3 | Cc1cc(-n2nnc(-c3ccc(C4=CCN(C(=N)N)CC4)cc3)c2C)ccc1C1=CCN(C(=N)N)CC1 [Example 33, 4-(4-{4-[4-(1-Carbamimidoyl-1,2,3,6-tetrahydropyridin-4-yl)phenyl]-5-methyl-1H-1,2,3-triazol-1-yl}-2-methylphenyl)-1,2,3,6-tetrahydropyridne-1-carboximidamide] | 3.13 µg/mL (≈ 6.32 µM) | 0.63 µg/mL (≈ 1.27 µM) | 12.5 µg/mL (≈ 25.2 µM) | 0.04 µg/mL (≈ 0.0807 µM) | 0.08 µg/mL (≈ 0.161 µM) | 0.025 µg/mL (≈ 0.0504 µM) | 0.05 µg/mL (≈ 0.101 µM) | – | – | – | – | – | – | –
4 | Cn1c(-c2ccc(C3=CCN(C(=N)N)C3)cc2)nnc1-c1ccc(C2=CCN(C(=N)N)C2)c(C(F)(F)F)c1 [Example 27, 3-(4-(5-(4-(1-Carbamimidoyl-2,5-dihydro-1H-pyrrol-3-yl)-3-(trifluoromethyl)phenyl)-4-methyl4H-1,2,4-triazol-3-yl)phenyl)-2,5-dihydro-1H-pyrrole-1-carboximidamide] | 0.78 µg/mL (≈ 1.5 µM) | < 0.1 µg/mL | 6.25 µg/mL (≈ 12 µM) | 0.39 µg/mL (≈ 0.748 µM) | 0.39 µg/mL (≈ 0.748 µM) | 0.2 µg/mL (≈ 0.383 µM) | < 0.1 µg/mL | – | – | – | – | – | – | –
5 | COCCn1c(-c2ccc(C3=CCC(C(=N)N)CC3)cc2F)nnc1-c1ccc(C2=CCC(C(=N)N)CC2)cc1F.O=C(O)C(F)(F)F (stereo not shown) [Example 86, 4-(4-{5-[4-(4-carbamimidoylcyclohex-1-en-1-yl)-2-fluorophenyl]-4-(2-methoxyethyl)-4H-1,2,4-triazol-3-yl}-3-fluorophenyl)cyclohex-3-ene-1-carboximidamide trifluoroacetate] | 1.56 µg/mL | 0.78 µg/mL | 6.25 µg/mL | 0.78 µg/mL | 0.78 µg/mL | 0.2 µg/mL | 0.78 µg/mL | – | – | – | – | – | – | –
6 | N=C(N)N1CC=C(c2ccc(-c3nnc(-c4ccc(C5=CCN(C(=N)N)CC5)cc4)n3C3CCCC3)cc2)CC1 [Example 69, 4-(4-{5-[4-(1-carbamimidoyl-1,2,3,6-tetrahydropyridin-4-yl)phenyl]-4-cyclopentyl-4H-1,2,4-triazol-3-yl}phenyl)-1,2,3,6-tetrahydropyridine-1-carboximidamide trifluoroacetate] | – | – | – | – | – | – | – | 0.39 µg/mL | 0.1 µg/mL | 0.39 µg/mL | 0.2 µg/mL | 0.39 µg/mL | < 0.1 µg/mL | < 0.1 µg/mL
7 | CCCCCCCCn1c(-c2ccc(C3=CCN(C(=N)N)CC3)cc2F)nnc1-c1ccc(C2=CCN(C(=N)N)CC2)cc1F [Example 11, 4,4′-(4,4′-(4-Octyl-4H-1,2,4-triazole-3,5-diyl)bis(3-fluoro-4,1-phenylene))bis(5,6-dihydropyridine-1(2H)-carboximidamide)] | 1.56 µg/mL (≈ 2.53 µM) | 0.39 µg/mL (≈ 0.633 µM) | 3.13 µg/mL (≈ 5.08 µM) | 0.78 µg/mL (≈ 1.27 µM) | 1.56 µg/mL (≈ 2.53 µM) | 0.2 µg/mL (≈ 0.325 µM) | 0.2 µg/mL (≈ 0.325 µM) | – | – | – | – | – | – | –
8 | Cl.N=C(N)N1CC=C(c2ccc(-c3nnc(-c4ccc(C5=CCN(C(=N)N)CC5)cc4)n3CCO)cc2)CC1 [Example 70, 4-(4-{5-[4-(1-carbamimidoyl-1,2,3,6-tetrahydropyridin-4-yl)phenyl]-4-(2-hydroxyethyl)-4H-1,2,4-triazol-3-yl}phenyl)-1,2,3,6-tetrahydropyridine-1-carboximidamide hydrochloride] | 1.56 µg/mL | 0.1 µg/mL | 12.5 µg/mL | 0.1 µg/mL | 0.3 µg/mL | 0.05 µg/mL | 0.05 µg/mL | – | – | – | – | – | – | –
9 | Cc1cc(-c2nnc(-c3ccc(C4=CCN(C(=N)N)CC4)cc3)o2)ccc1C1=CCN(C(=N)N)CC1 [Example 42, 4-(4-(5-(4-(1-Carbamimidoyl-1,2,3,6-tetrahydropyridin-4-yl)-3-methylphenyl)-1,3,4-oxadiazol-2-yl)phenyl)-5,6-dihydropyridine-1(2H)-carboximidamide] | 25 µg/mL (≈ 51.8 µM) | > 25 µg/mL | 25 µg/mL (≈ 51.8 µM) | 6.25 µg/mL (≈ 13 µM) | 0.39 µg/mL (≈ 0.808 µM) | 1.56 µg/mL (≈ 3.23 µM) | 0.39 µg/mL (≈ 0.808 µM) | – | – | – | – | – | – | –
10 | Cn1c(-c2ccc(C3=CCN(C(=N)N)CC3)cc2F)nnc1-c1ccc(C2=CCN(C(=N)N)CC2)cc1F [Example 8, 4,4′-(4,4′-(4-Methyl-4H-1,2,4-triazole-3,5-diyl)bis(3-fluoro-4,1-phenylene)) bis(5,6-dihydropyridine-1(2H)-carboximidamide)] | 0.2 µg/mL (≈ 0.386 µM) | 0.05 µg/mL (≈ 0.0966 µM) | 0.39 µg/mL (≈ 0.753 µM) | 0.05 µg/mL (≈ 0.0966 µM) | 0.1 µg/mL (≈ 0.193 µM) | 0.05 µg/mL (≈ 0.0966 µM) | 0.006 µg/mL (≈ 0.0116 µM) | – | – | – | – | – | – | –
